According to patent US10471092B2, “Combination of hyaluronic acid and macrogol and pharmaceutical compositions containing it” (APHARM S.r.l., priority 2015, dated 2019):
Several values for one entry are separate records, joined by “and”; a condition that tells them apart may be missing. Equal entries are not always repeated.

Key:
Type in all cases: in vivo, rat
rats [1] = experiment: Colon propulsion, glass bead expulsion from distal colon (Raffa et al.; Lopez)
Text: (§1) Intestinal transit, colon peristalsis and the amount of stool expelled have been evaluated on rats, after the administration of different individual doses of macrogol and sodium hyaluronate and of the combination of the invention.
In this case all the values are significant with respect to the same treatment without water. […] Analogously to what observed in tab. […] The reduction of expulsion time results to be dose dependent, being in all the cases clearly evident and statistically significant with respect to the PEG+water dose. […] Propulsion of distal colon has been measured according to the method of Raffa et al. (Life Sci., 41: 2229-34, 1987) and of Lopez (Dig. Dis. Sci., 29:551, 1984). 30 min after the administration of the preparations, a 5 mm diameter glass bead has been inserted in the distal colon of each rat at 3 cm from the anus. The parameter taken as the reference was the time required by each rat to expel the bead. The lower the expulsion time, the highest the colon propulsion.

rats [2] = experiment: Intestinal transit, activated carbon feed (method of Schulz et al); conditions: for % of increase of intestinal transit with respect to: rats
Experimental: as §1
On the other hand, such a parameter is increased with a dose-response behavior at the same doses by adding 0.3 ml of water administered per os. as well. In fact, the percentage increase values range from +10% at the 365 mg/kg p.o. dose of PEG to +23% at the 1560 mg/kg p.o. dose. […] Interesting results, under the same experimental conditions, have been obtained with the combination of PEG and sodium hyaluronate.
The experiment has been carried out following the method of Schulz et al (NS Arch. Pharmacol. 308:255-260, 1979) by using an activated carbon feed. 1.5 ml of a 20% (w/v) activated carbon suspension in a 5% (w/v) gum arabic solution has been administered by gavage to 24 hrs starved rats with free access to water. The rats have been sacrificed 10 min after receiving the activated carbon feed and their intestine has been completely removed. The transit in the small intestine has been calculated for each rat as the ratio between the traveled distance of the activated carbon feed and the total length of the intestine itself. Data are expressed as the percentage of transit in treated rats with respect to controls that have been considered as 100. Administration of the preparations occurred 30 min before sacrificing the animal.

rats [3] = experiment: Evaluation of the amount of stool (number of expelled pellets)
Experimental: as §1
In Table 3 it is possible to observe an increase in the number of expelled pellets from the rat after the PEG (365-1460 mg/kg p.o. without water and […] p.o. with water) and 20-50 mg/kg hyaluronate treatment in both conditions. […] A greater number of expelled pellets have been induced by the combination of 730 mg/kg p.o. PEG with 30 and 50 mg/kg p.o. sodium hyaluronate+water. […] By administering a dose of 487 mg/kg PEG+50 mg/kg p.o. sodium hyaluronate+water, the number of expelled pellets is equal to that one that can be observed with 730 mg/kg p.o. PEG and 30 mg/kg p.o. sodium hyaluronate. […] The stool expulsion has been monitored for each rat, starting from 1 h after the administration of the preparations (Martinez e Taché, Brain Res. 893: 29-35, 2001).

[4] = 20 mg/kg p.o. IALURONATE, no water
[5] = 30 mg/kg p.o. IALURONATE, no water
[6] = 50 mg/kg p.o. IALURONATE, no water

polyethylene glycol [PEG]
Bead Expulsion time (rats [1]; 365 mg/kg p.o. PEG + Water 0.3 ml, rats): 153 ± 13 s | Bead Expulsion time (rats [1]; 365 mg/kg p.o. PEG, no water, rats): 202 ± 11 s | Bead Expulsion time (rats [1]; 487 mg/kg p.o. PEG + Water 0.3 ml, rats): 135 ± 19 s | Bead Expulsion time (rats [1]; 730 mg/kg p.o. PEG + Water 0.3 ml, rats): 128 ± 16 s | Bead Expulsion time (rats [1]; 730 mg/kg p.o. PEG, no water, rats): 181 ± 9 s | Bead Expulsion time (rats [1]; 973 mg/kg p.o. PEG + Water 0.3 ml, rats): 116 ± 18 s | Bead Expulsion time (rats [1]; 973 mg/kg p.o. PEG, no water, rats): 185 ± 12 s | Bead Expulsion time (rats [1]; 1460 mg/kg p.o. PEG, no water, rats): 173 ± 15 s | Bead Expulsion time (rats [1]; 1560 mg/kg p.o. PEG + Water 0.3 ml, rats): 93 ± 9 s | colon propulsion activity (rats [1]; PEG 365 to 1560 mg/kg p.o. with simultaneous intake of water, vs same treatment without water, rats): statistically significant effect | colon propulsion activity (rats [1]; PEG alone, without simultaneous administration of water by gavage, rats): does not modify | % of increase of intestinal transit with respect to (rats [2]; 365 mg/kg p.o. PEG + Water 0.3 ml): 10% and 10.8% | % of increase of intestinal transit with respect to (rats [2]; 365 mg/kg p.o. PEG, no water): 9.4% | % of increase of intestinal transit with respect to (rats [2]; 487 mg/kg p.o. PEG + Water 0.3 ml): 11.5% | % of increase of intestinal transit with respect to (rats [2]; 730 mg/kg p.o. PEG + Water 0.3 ml): 15.3% | % of increase of intestinal transit with respect to (rats [2]; 730 mg/kg p.o. PEG, no water): 6.7% | % of increase of intestinal transit with respect to (rats [2]; 973 mg/kg p.o. PEG + Water 0.3 ml): 18.6% | % of increase of intestinal transit with respect to (rats [2]; 973 mg/kg p.o. PEG, no water): 8.8% | % of increase of intestinal transit with respect to (rats [2]; 1460 mg/kg p.o. PEG, no water): 8.6% | % of increase of intestinal transit with respect to (rats [2]; 1560 mg/kg p.o. PEG + Water 0.3 ml): 23% and 23.2% | intestinal motility (rats [2]; PEG by gavage, 365 to 1460 mg/kg p.o., without water, rat): does not induce a significant increase | No of pellets after 60 min (rats [3]; 365 mg/kg p.o. PEG + Water 2 ml): 0 | No of pellets after 60 min (rats [3]; 365 mg/kg p.o. PEG, no water): 0 | No of pellets after 60 min (rats [3]; 487 mg/kg p.o. PEG + Water 2 ml): 2 | No of pellets after 60 min (rats [3]; 730 mg/kg p.o. PEG + Water 2 ml): 3 | No of pellets after 60 min (rats [3]; 730 mg/kg p.o. PEG, no water): 0 | No of pellets after 60 min (rats [3]; 973 mg/kg p.o. PEG + Water 2 ml): 3 | No of pellets after 60 min (rats [3]; 973 mg/kg p.o. PEG, no water): 1 | No of pellets after 60 min (rats [3]; 1460 mg/kg p.o. PEG, no water): 1 | No of pellets after 60 min (rats [3]; 1560 mg/kg p.o. PEG + Water 2 ml): 3

sodium hyaluronate [IALURONATE]
Bead Expulsion time (rats [1]; 20 mg/kg p.o. IALURONATE + Water 0.3 ml, rats): 129 ± 14 s | Bead Expulsion time (rats [1]; 20 mg/kg p.o. IALURONATE, no water, rats): 195 ± 12 s | Bead Expulsion time (rats [1]; 30 mg/kg p.o. IALURONATE + Water 0.3 ml, rats): 120 ± 11 s | Bead Expulsion time (rats [1]; 30 mg/kg p.o. IALURONATE, no water, rats): 191 ± 16 s | Bead Expulsion time (rats [1]; 50 mg/kg p.o. IALURONATE + Water 0.3 ml, rats): 114 ± 15 s | Bead Expulsion time (rats [1]; 50 mg/kg p.o. IALURONATE, no water, rats): 188 ± 21 s | expulsion time of the bead (rats [1]; sodium hyaluronate 20-50 mg/kg p.o. by gavage, no water, rats): does not modify | expulsion time of the bead (rats [1]; sodium hyaluronate 20-50 mg/kg p.o., rat intakes water (0.2 ml)): the effect is very evident | % of increase of intestinal transit with respect to (rats [2]; 20 mg/kg p.o. IALURONATE + Water 0.3 ml): 17.0% | % of increase of intestinal transit with respect to (rats [2]; [4]): 0% | % of increase of intestinal transit with respect to (rats [2]; 30 mg/kg p.o. IALURONATE + Water 0.3 ml): 19.6% | % of increase of intestinal transit with respect to (rats [2]; [5]): 3.8% | % of increase of intestinal transit with respect to (rats [2]; 50 mg/kg p.o. IALURONATE + Water 0.3 ml): 20.3% | % of increase of intestinal transit with respect to (rats [2]; [6]): 4.2% | intestinal transit (rats [2]; sodium hyaluronate 20-50 mg/kg p.o., without simultaneous intake of water, rat): does not induce an increase | No of pellets after 60 min (rats [3]; 20 mg/kg p.o. IALURONATE + Water 2 ml): 2 | No of pellets after 60 min (rats [3]; [4]): 0 | No of pellets after 60 min (rats [3]; 30 mg/kg p.o. IALURONATE + Water 2 ml): 2 | No of pellets after 60 min (rats [3]; [5]): 1 | No of pellets after 60 min (rats [3]; 50 mg/kg p.o. IALURONATE + Water 2 ml): 3 | No of pellets after 60 min (rats [3]; [6]): 1
